Test results as given in PubChem BioAssay (NCI).
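Following 48 hours of exposure in 96-well plates, responses at five concentrations were used to interpolate endpoints linearly. TGI is the concentration that stops growth completely.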

Assays:
Test in all cases: inhibition of tumour cell growth, NCI panel, 48 h
HOP-92 NSCLC = tested on: HOP-92 NSCLC
LOX IMVI melanoma = tested on: LOX IMVI melanoma
CAKI-1 renal = tested on: CAKI-1 renal
OVCAR-3 ovarian = tested on: OVCAR-3 ovarian
SNB-75 CNS = tested on: SNB-75 CNS
NCI-H23 lung = tested on: NCI-H23 lung
HCT-15 colon = tested on: HCT-15 colon
SK-MEL-28 melanoma = tested on: SK-MEL-28 melanoma
NCI/ADR-RES ovarian = tested on: NCI/ADR-RES ovarian
SK-OV-3 ovarian = tested on: SK-OV-3 ovarian
UACC-62 melanoma = tested on: UACC-62 melanoma
U251 CNS = tested on: U251 CNS
RXF 393 renal = tested on: RXF 393 renal
KM12 colon = tested on: KM12 colon
MALME-3M melanoma = tested on: MALME-3M melanoma
NCI-H226 lung = tested on: NCI-H226 lung
BT-549 breast = tested on: BT-549 breast
SF-539 CNS = tested on: SF-539 CNS
MDA-N = tested on: MDA-N
TK-10 renal = tested on: TK-10 renal

SMILES	TGI (HOP-92 NSCLC) [µM]	TGI (LOX IMVI melanoma) [µM]	TGI (CAKI-1 renal) [µM]	TGI (OVCAR-3 ovarian) [µM]	TGI (SNB-75 CNS) [µM]	TGI (NCI-H23 lung) [µM]	TGI (HCT-15 colon) [µM]	TGI (SK-MEL-28 melanoma) [µM]	TGI (NCI/ADR-RES ovarian) [µM]	TGI (SK-OV-3 ovarian) [µM]	TGI (UACC-62 melanoma) [µM]	TGI (U251 CNS) [µM]	TGI (RXF 393 renal) [µM]	TGI (KM12 colon) [µM]	TGI (MALME-3M melanoma) [µM]	TGI (NCI-H226 lung) [µM]	TGI (BT-549 breast) [µM]	TGI (SF-539 CNS) [µM]	TGI (MDA-N) [µM]	TGI (TK-10 renal) [µM]
CC1OC(OC2C(OC(=O)[C@]34CCC(C)(C)C[C@H]3C3=CC[C@@H]5[C@@]6(C)CC[C@H](OC7OC(C(=O)O)C(O)C(O)C7O)C(C)(C)[C@@H]6CC[C@@]5(C)[C@]3(C)C[C@H]4O)OCC(O)C2O)C(O)C(O)C1OC1OCC(OC2OCC(O)C(O)C2O)C(O)C1O (stereo not given in full)	19.5	24.2	21.6	30	26.1	4.87	28	11.7	25.1	26.9	23.7	21.2	29	14	25.3	22.9	13	–	–	–
CN(C)CCCN1c2ccc([N+](=O)[O-])cc2CCc2cccc([N+](=O)[O-])c21	26.8	31.8	–	28.8	26.5	31.2	30.5	30.1	30.4	30.8	10.4	29.3	22.8	28.9	28	29.3	–	31.5	29.2	23.2
COc1ccc(/C=c2/sc3n(c2=O)C(c2ccccc2)C2(O)CCCCC2N=3)cc1 (stereo not given)	–	> 12.5	> 12.5	> 12.5	> 12.5	> 12.5	–	> 12.5	–	–	> 12.5	> 12.5	–	–	> 12.5	> 12.5	> 12.5	–	> 12.5	> 12.5
C/C(=C\CO)CC/C=C(\C)CNc1c(F)c(F)c(F)c(F)c1F	–	80.8	> 100	52.8	66.3	> 100	85.4	41.1	86.2	> 100	37.9	59.2	65.3	77.5	57.2	75.1	22.3	40.3	–	85.7
C[n+]1c2ccccc2c(NCC(=O)O)c2ccccc21	–	–	> 100	> 100	> 100	> 100	> 100	–	–	> 100	> 100	> 100	> 100	> 100	> 100	> 100	–	> 100	–	> 100
COc1cc2c(cc1OC)[C@@H]1[C@H](C#N)C(=O)C(C)(C)N1CC2	> 100	> 100	> 100	> 100	–	> 100	> 100	> 100	> 100	> 100	> 100	> 100	–	> 100	> 100	> 100	> 100	–	> 100	> 100
COc1ccc2c(c1)CC[C@@H]1[C@@H]2CC[C@]2(C)C(=O)/C(=C/c3ccc(N(C)C)cc3)C[C@@H]12	69	–	71.7	54.6	52.3	> 100	> 100	–	> 100	> 100	> 100	> 100	87.2	> 100	> 100	–	70.6	> 100	–	96.9
Cc1cc(=O)[nH]c(NNC(C#N)c2cccc(O)c2)n1 (stereo not given)	> 100	> 100	> 100	> 100	> 100	> 100	> 100	> 100	–	> 100	> 100	> 100	> 100	> 100	> 100	> 100	–	> 100	–	> 100
Cc1ccc(Nc2nc(=O)c3c4ccccc4n(C(=O)OC(C)(C)C)c3s2)cc1	> 100	46.7	66	55.7	> 100	50.4	> 100	> 100	32.5	> 100	63.5	> 100	–	54.5	66.3	–	56.5	79.8	–	99.9
O=[N+]([O-])c1cccc2nc3ccccc3c(NCCCCNc3c4ccccc4nc4cccc([N+](=O)[O-])c34)c12	0.0854	0.258	0.168	0.231	1.83	0.159	1.02	0.522	2.71	1.69	0.302	0.187	0.117	0.204	0.255	2.66	1.79	0.102	–	0.0304
N#Cc1cccc2c1Sc1ccccc1N2	> 100	36.5	> 100	> 100	3.15	> 100	> 100	–	> 100	> 100	> 100	> 100	33.7	> 100	> 100	> 100	79.8	64.2	–	75.8
S=c1nc2sc3c(c2c(Nc2ccc(Cl)cc2)[nH]1)CCCC3	> 100	> 100	> 100	> 100	–	> 100	> 100	> 100	–	> 100	> 100	> 100	> 100	> 100	> 100	> 100	> 100	–	> 100	> 100
CC(=O)c1cccc(Nc2nc3ccccc3c3occc23)c1	33	> 100	> 100	> 100	45.2	50.8	> 100	> 100	> 100	40.8	–	55.9	41.7	> 100	53	8.25	39.6	35.6	–	38.5
CN(Cc1cnc2nc(N)nc(N)c2n1)c1ccc(C(=O)NCCS(=O)(=O)O)cc1	–	> 100	> 100	> 100	> 100	> 100	> 100	> 100	> 100	> 100	> 100	> 100	–	> 100	> 100	> 100	> 100	> 100	> 100	> 100
CC(=O)Nc1oc(C)c(C)c1S(=O)(=O)c1ccc(Cl)cc1	> 100	–	–	> 100	> 100	> 100	> 100	> 100	> 100	> 100	> 100	> 100	> 100	> 100	> 100	> 100	89.3	> 100	–	> 100
Cc1nnc2n1N=C(c1ccccc1)/C(=C/c1ccc(-c3ccc(Cl)cc3)o1)S2	32.6	–	29.4	23.9	–	36.4	31.3	–	–	> 100	29.1	24.4	26.7	32.4	33.6	31.1	32.2	–	34	26.4
Cc1sc(Nc2ccc(Nc3nc(-c4ccccc4)c(C)s3)cc2)nc1-c1ccccc1	> 100	> 100	> 100	> 100	> 100	> 100	> 100	> 100	> 100	> 100	> 100	49.6	81.5	> 100	> 100	> 100	> 100	70.6	–	> 100
C/C=C/C(C#N)(/C=C/c1ccccc1)OP1(=O)OC(c2ccccc2)C(C)N1C (stereo not given)	31.6	35	54.8	35.5	39.4	–	–	32.7	–	55.3	34.5	32.8	38.5	36.7	38.8	–	–	35.1	39	37.8
COc1cc(-c2ccc(Br)[nH]2)[nH]c1C=NCC(C)C	4.01	–	7.64	3.79	9.45	4.14	3.15	7.67	–	6.91	7.33	3.88	–	3.94	3.13	–	–	5.84	–	6.56
S=C1NCCN1	> 100	> 100	> 100	> 100	> 100	> 100	> 100	> 100	–	> 100	> 100	> 100	–	> 100	> 100	> 100	–	> 100	–	> 100
CN1Cc2ccccc2S(=O)(=O)n2cccc2C1=O	> 100	> 100	> 100	> 100	> 100	–	> 100	> 100	–	> 100	> 100	> 100	> 100	> 100	–	–	> 100	> 100	> 100	> 100
CCOC(=O)c1c(SC(=O)c2ccc(C(C)(C)C)cc2)n(-c2ccccc2)c(=S)n(-c2ccccc2)c1=O	> 100	> 100	> 100	> 100	> 100	> 100	> 100	> 100	> 100	> 100	> 100	> 100	> 100	> 100	> 100	> 100	–	> 100	> 100	> 100
O=C(Nc1ccccc1)OCCN=C1c2ccccc2C(Br)C(Br)c2ccccc21 (stereo not given)	16.1	13.4	16.2	15.8	26.5	25.9	> 24.2	16.1	19.4	22.5	17.6	16.5	9.69	18.7	16.3	19.2	–	7.2	17.1	18.5
Cc1c(-c2ccc(O)cc2)n(CCCCCCNCCOC(=O)NCCCc2ccc(N(CCCl)CCCl)cc2)c2ccc(O)cc12	–	2.97	25.7	6.41	14.1	3.45	3.56	13.8	–	22.4	3.26	13.5	–	3.75	3.12	–	26.7	3.11	3.47	6.06
Nc1ccccc1-c1noc(=O)[nH]1	> 100	> 100	> 100	> 100	> 100	> 100	> 100	> 100	> 100	> 100	> 100	> 100	> 100	> 100	–	> 100	> 100	> 100	–	> 100
COc1cc2c(c(OC)c1O)-c1ccc(SC)c(=O)cc1C(NC(C)=O)CC2 (stereo not given)	> 100	> 100	> 100	0.0142	–	3.79	> 100	> 100	–	> 100	> 100	> 5.55	> 100	–	> 100	> 16.7	–	–	–	> 100
Cc1c2n(c(=O)[nH]c1=O)C1OC(CO)C(O2)C1N=[N+]=[N-] (stereo not given)	> 100	> 100	> 100	> 100	> 100	> 100	> 100	> 100	–	> 100	> 100	> 100	–	> 100	–	> 100	–	> 100	–	> 100
